Experimental data from ChEMBL document CHEMBL1150171, “DNA-damaging agents from Crypteronia paniculata” (J Nat Prod, 2002).
Calls of active or inactive are those of the source. The calls are words filed in the database; no cut-off is given here.

Assays:
Saccharomyces cerevisiae [1] = assay: DNA damaging activity against RAD52 transformed Saccharomyces cerevisiae in glucose minimal medium after 41 hrs; format: functional, organism-based
Saccharomyces cerevisiae [2] = assay: DNA damaging activity against YCp50 transformed Saccharomyces cerevisiae in galactose minimal medium after 41 hrs
Saccharomyces cerevisiae [3] = assay: DNA damaging activity against RAD52 transformed Saccharomyces cerevisiae in galactose minimal medium after 41 hrs; format: functional, organism-based
Nucleic Acid [4] = assay: Induction of DNA cleavage assessed as relaxation of supercoiled plasmid DNA at > 1 mM in presence of Cu2+ by cell free assay; format: nucleic-acid assay
Nucleic Acid [5] = assay: Induction of DNA cleavage assessed as relaxation of supercoiled plasmid DNA at > 1 mM by cell free assay; format: nucleic-acid assay

IC50 (Saccharomyces cerevisiae [1]) [µM] | IC50 (Saccharomyces cerevisiae [2]) [µM] | IC50 (Saccharomyces cerevisiae [3]) [µM] | Activity (Nucleic Acid [4]) | Activity (Nucleic Acid [5]) | Compound
3.1 | 23.1 | > 1000 | – | – | COc1c(O)cc2c(=O)oc3c(OC)c(O[C@@H]4OC[C@@H](O)[C@H](O)[C@H]4O)cc4c(=O)oc1c2c34
7.4 | 9.3 | > 1000 | inactive | inactive | C[C@@H]1O[C@@H](Oc2c(-c3ccc(O)cc3)oc3cc(O)cc(O)c3c2=O)[C@H](O)[C@H](O)[C@H]1O [AFZELIN]
1.12 | 0.341 | 14.4 | – | – | COc1c(O[C@@H]2O[C@H](CO)[C@@H](O)[C@H](O)[C@H]2O)cc2c(=O)oc3c4c(cc5c(=O)oc1c2c35)OCO4 [NYSSOSIDE]
